Test results published in ChEMBL document CHEMBL4619758, “Discovery of 3-({5-Chloro-1-[3-(methylsulfonyl)propyl]-1H-indol-2-yl}methyl)-1-(2,2,2-trifluoroethyl)-1,3-dihydro-2H-imidazo[4,5-c]pyridin-2-one (JNJ-53718678), a Potent and Orally Bioavailable Fusion Inhibitor of Respiratory Syncytial Virus” (J Med Chem, 2020).

Experiments:
[1] = Metabolic stability in human liver microsomes assessed as compound metabolized after 15 mins; format: ADME, Microsome; settings: read-out: Drug metabolism
[2] = Cytotoxicity against human HeLa cells assessed as reduction in cell viability after 3 days by ATPlite assay
in vitro = settings: human, HeLa cells
Description: Selectivity index, ratio of CC50 for human HeLa cells to EC50 GFP-fused RSV 224 fusion protein infected in human HeLa cells

Cytochrome P450 3A4 = Cytochrome P450 3A4 (Homo sapiens, UniProt P08684); test: Time-dependent inhibition of CYP3A4 in human liver microsomes using testosterone as substrate; format: ADME
[3] = Ratio of AUC (0 to last) in lung to plasma of Sprague-Dawley rat at 10 mg/kg, po administered as single dose; format: ADME, organism-based; settings: lung and plasma, read-out: Ratio AUC
[4] = Absolute oral bioavailability in Sprague-Dawley rat at 10 mg/kg administered as single dose; format: ADME, organism-based; settings: in vivo
[5] = AUC in Sprague-Dawley rat at 10 mg/kg, po administered as single dose; format: ADME, organism-based; settings: in vivo
[6] = Metabolic stability in rat liver microsomes assessed as compound metabolized after 15 mins; format: ADME, Microsome; settings: read-out: Drug metabolism
[7] = Protein binding in human plasma assessed as unbound fraction; format: ADME, cell-free
[8] = Clearance in Sprague-Dawley rat at 2 mg/kg, iv administered as single dose; format: ADME, organism-based; settings: in vivo
[9] = Cmax in Sprague-Dawley rat at 10 mg/kg, po administered as single dose; format: ADME, organism-based; set-up: dose 10 mg/kg, route oral; settings: in vivo
[10] = Volume of distribution at steady state in Sprague-Dawley rat at 2 mg/kg, iv administered as single dose; format: ADME, organism-based; settings: in vivo, read-out: Vdss

Cytochrome P450 3A4, sequence (P08684 whole entry): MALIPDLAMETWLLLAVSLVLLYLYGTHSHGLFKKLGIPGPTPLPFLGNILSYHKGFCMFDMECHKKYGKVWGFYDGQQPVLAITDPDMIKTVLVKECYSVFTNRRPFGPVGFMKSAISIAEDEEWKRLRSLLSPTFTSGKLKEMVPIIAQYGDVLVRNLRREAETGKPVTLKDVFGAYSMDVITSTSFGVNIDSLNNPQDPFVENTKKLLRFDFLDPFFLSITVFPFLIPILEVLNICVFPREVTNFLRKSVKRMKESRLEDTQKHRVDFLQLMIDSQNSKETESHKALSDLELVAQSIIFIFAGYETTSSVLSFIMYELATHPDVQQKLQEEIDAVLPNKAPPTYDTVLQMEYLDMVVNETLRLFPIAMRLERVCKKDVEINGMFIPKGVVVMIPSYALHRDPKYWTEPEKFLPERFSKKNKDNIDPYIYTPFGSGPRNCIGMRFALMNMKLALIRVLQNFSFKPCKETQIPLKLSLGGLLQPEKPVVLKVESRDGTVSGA

| SMILES | metabolised at 0.25 h [1] [%] | CC50 at 72 h [2] [µM] | further results |
| --- | --- | --- | --- |
| CS(=O)(=O)CCCn1c(Cn2c(=O)n(C3CC3)c3ccncc32)cc2ccccc21 |  | > 100 | selectivity ratio (in vitro): > 10000 |
| O=c1n(Cc2cc3ncccc3n2CCCCO)c2cnccc2n1C1CC1 |  | > 100 | selectivity ratio (in vitro): > 613 |
| CC(C)CCn1c(Cn2c(=O)n(C3CC3)c3ccncc32)nc2ccncc21 |  | > 100 | selectivity ratio (in vitro): > 987 |
| CC(C)CCn1c(Cn2c(=O)n(C3CC3)c3ccncc32)nc2cnccc21 |  | > 100 | selectivity ratio (in vitro): > 3000 |
| O=c1n(Cc2cc3cnccc3n2CCCCO)c2cnccc2n1C1CC1 |  | > 100 | selectivity ratio (in vitro): > 57000 |
| O=c1n(Cc2cc3ccc(Cl)cc3n2CCCCO)c2cnccc2n1C1CC1 |  | > 50 |  |
| O=c1n(Cc2cc3cc(Br)ccc3n2CCCCO)c2cnccc2n1C1CC1 |  | > 50 |  |
| CS(=O)(=O)CCCn1c(Cn2c(=O)n(C3CC3)c3ccncc32)cc2cc(F)ccc21 |  | > 50 |  |
| CC(C)CCn1c(Cn2c(=O)n(C3CC3)c3ccncc32)cc2cccnc21 |  | > 100 |  |
| O=C(O)CCCn1c(Cn2c(=O)n(C3CC3)c3ccncc32)cc2cc(Cl)ccc21 |  | > 50 |  |
| COc1ccc(-n2c(=O)n(Cc3cc4cc(Cl)ccc4n3CCCC#N)c3cnccc32)c(F)c1 | 17 | > 50 |  |
| N#CCCCn1c(Cn2c(=O)n(-c3ccc(C(=O)O)cc3)c3ccncc32)cc2cc(Cl)ccc21 | 9 | > 50 |  |
| O=c1n(Cc2nc3ncccc3n2CCCCO)c2cnccc2n1C1CC1 |  | > 100 | selectivity ratio (in vitro): > 10000 |
| COc1ccc(-n2c(=O)n(Cc3cc4cc(Cl)ccc4n3CCCC#N)c3cnccc32)c(C)c1 | 36 | > 50 |  |
| CC(C)CCn1c(Cn2c(=O)n(C3CC3)c3ccncc32)nc2cccnc21 |  | > 100 | selectivity ratio (in vitro): > 80 |
| N#CCCCn1c(Cn2c(=O)n(-c3ccc(OC(F)(F)F)cc3)c3ccncc32)cc2cc(Cl)ccc21 | 0 | > 50 |  |
| COc1ccc(-n2c(=O)n(Cc3cc4cc(Cl)ccc4n3CCCC#N)c3cnccc32)cc1C | 33 | > 50 |  |
| O=c1n(Cc2cc3ccncc3n2CCCCO)c2cnccc2n1C1CC1 |  | > 100 | selectivity ratio (in vitro): > 76 |
| CC(C)CCn1c(Cn2c(=O)n(C3CC3)c3ccncc32)nc2ncccc21 |  | > 100 | selectivity ratio (in vitro): > 12000 |
| CS(=O)(=O)CCCn1c(Cn2c(=O)n(C3CC3)c3ccncc32)cc2cc(C(F)(F)F)ccc21 |  | > 50 |  |
| N#CCCCn1c(Cn2c(=O)n(-c3ccncc3)c3ccncc32)cc2cc(Cl)ccc21 | 23 | > 50 |  |
| NC(=O)CCCn1c(Cn2c(=O)n(C3CC3)c3ccncc32)cc2cc(Cl)ccc21 |  | > 50 |  |
| N#CCCCn1c(Cn2c(=O)n(-c3ccncc3F)c3ccncc32)cc2cc(Cl)ccc21 | 27 | > 50 |  |
| O=c1n(Cc2nc3cnccc3n2CCCCO)c2cnccc2n1C1CC1 |  | > 100 | selectivity ratio (in vitro): > 18000 |
| O=c1n(Cc2cc3cc(F)ccc3n2CCCCO)c2cnccc2n1C1CC1 |  | > 50 |  |
| CC(C)CCn1c(Cn2c(=O)n(C3CC3)c3ccncc32)cc2ccccc21 |  | > 100 | selectivity ratio (in vitro): 181; fraction unbound [7]: 0.006 |
| Cc1ccc(-n2c(=O)n(Cc3cc4cc(Cl)ccc4n3CCCC#N)c3cnccc32)cc1 | 36 | > 50 |  |
| CS(=O)(=O)CCCn1c(Cn2c(=O)n(C3CC3)c3ccncc32)cc2cc(Br)ccc21 |  | > 50 |  |
| COc1ccc2c(c1)cc(Cn1c(=O)n(C3CC3)c3ccncc31)n2CCCCO |  | > 50 |  |

More lines, main results first:

| metabolised at 0.25 h [1] [%] | SMILES | CC50 at 72 h [2] [µM] | further results |
| --- | --- | --- | --- |
| 52 | CS(=O)(=O)CCCn1c(Cn2c(=O)n(C3COC3)c3ccncc32)cc2cc(Cl)ccc21 | > 50 |  |
| 49 | Cn1ccc(-n2c(=O)n(Cc3cc4cc(Cl)ccc4n3CCCC#N)c3cnccc32)n1 | > 50 |  |
| 32 | CS(=O)(=O)CCCn1c(Cn2c(=O)n(C3CC3)c3ccncc32)cc2cnccc21 | > 50 |  |
| 0 | CS(=O)(=O)CCCn1c(Cn2c(=O)n(C3CC3)c3ccncc32)nc2nc(Cl)ccc21 | > 50 |  |
| 37 | N=C(CCCn1c(Cn2c(=O)n(C3CC3)c3ccncc32)cc2cc(Cl)ccc21)NO | > 50 |  |
| 2 | CC(n1c(=O)n(Cc2cc3cc(Cl)ccc3n2CCCS(C)(=O)=O)c2cnccc21)C(F)(F)F (stereo not drawn) | > 50 |  |
| 97 | CC(C)n1c(=O)n(Cc2cc3cc(Cl)ccc3n2CCCS(C)(=O)=O)c2cnccc21 | > 50 | TDI (Cytochrome P450 3A4): Not Active |
| 98 | CS(=O)(=O)CCCn1c(Cn2c(=O)n(CC3CC3)c3ccncc32)cc2cc(Cl)ccc21 | > 50 | TDI (Cytochrome P450 3A4): Not Active |
| 41 | CC(C)(O)CCCn1c(Cn2c(=O)n(C3CC3)c3ccncc32)nc2nc(Cl)ccc21 | > 50 |  |
| 56 | CC(C)(O)CCCn1c(Cn2c(=O)n(C3CC3)c3ccncc32)cc2cc(Cl)ccc21 | > 50 |  |
| 60 | N#CCCCn1c(Cn2c(=O)n(-c3ccncn3)c3ccncc32)cc2cc(Cl)ccc21 | > 50 |  |
| 0 | O=c1n(Cc2nc3nc(Cl)ccc3n2CCCCF)c2cnccc2n1C1CC1 | > 50 |  |
| 0 | N#CCCCn1c(Cn2c(=O)n(C3CC3)c3ccncc32)nc2nc(Cl)ccc21 | > 50 |  |
| 29 | CC1(n2c(=O)n(Cc3cc4cc(Cl)ccc4n3CCCS(C)(=O)=O)c3cnccc32)CC1 | > 50 | TDI (Cytochrome P450 3A4): Not Active |
| 24 | N#CCCCn1c(Cn2c(=O)n(-c3ccc(C(=O)NC4CC4)cc3)c3ccncc32)cc2cc(Cl)ccc21 | > 50 |  |
| 44 | CC(C)CCn1c(Cn2c(=O)n(C3CC3)c3ccncc32)cc2cnccc21 | > 50 |  |

| metabolised at 0.25 h [1] [%] | SMILES | CC50 at 72 h [2] [µM] | further results |
| --- | --- | --- | --- |
| 15 | O=c1n(Cc2cc3cnccc3n2CCCCF)c2cnccc2n1C1CC1 | > 50 |  |
| 14 | CS(=O)(=O)CCCn1c(Cn2c(=O)n(C3CNC3)c3ccncc32)cc2cc(Cl)ccc21 | > 50 |  |
| 0 | O=c1n(Cc2nc3nc(Cl)ccc3n2CCCCO)c2cnccc2n1C1CC1 | > 50 |  |
| 45 | N#CCCCn1c(Cn2c(=O)n(-c3ncco3)c3ccncc32)cc2cc(Cl)ccc21 | > 50 |  |
| 0 | O=c1n(Cc2nc3nc(Cl)ccc3n2CCCC(F)(F)F)c2cnccc2n1C1CC1 | > 50 | Kp [3]: 0.4; bioavailability [4]: 46%; AUC [5]: 3370 ng·h/mL; metabolised at 0.25 h [6]: 80%; fraction unbound [7]: 0.3; clearance [8]: 23.3 mL/min/kg; Cmax [9]: 1690 ng/mL; Vd [10]: 0.82 L/kg |
| 15 | CS(=O)(=O)CCCn1c(Cn2c(=O)n(C3CN(S(C)(=O)=O)C3)c3ccncc32)cc2cc(Cl)ccc21 | > 50 |  |
| 9 | CS(=O)(=O)CCCn1c(Cn2c(=O)[nH]c3ccncc32)cc2cc(Cl)ccc21 | > 50 | TDI (Cytochrome P450 3A4): Not Active |
| 28 | CC(C)(C)n1c(=O)n(Cc2cc3cc(Cl)ccc3n2CCCS(C)(=O)=O)c2cnccc21 | > 50 |  |
| 23 | O=c1n(Cc2cc3cc(Cl)ccc3n2CCCC(F)(F)F)c2cnccc2n1C1CC1 | > 50 |  |
| 17 | N#CCCCn1c(Cn2c(=O)n(C3CC3)c3ccncc32)cc2cc(Cl)ccc21 | > 50 | Kp [3]: 1.6; bioavailability [4]: 73%; AUC [5]: 3300 ng·h/mL; metabolised at 0.25 h [6]: 80%; fraction unbound [7]: 0.036; clearance [8]: 36.7 mL/min/kg; Cmax [9]: 1230 ng/mL; Vd [10]: 1.5 L/kg |
| 7 | CC(C)CCn1c(Cn2c(=O)n(C3CC3)c3ccncc32)nc2nc(Cl)ccc21 | > 50 |  |
| 66 | CS(=O)(=O)CCCn1c(Cn2c(=O)n(CC#N)c3ccncc32)cc2cc(Cl)ccc21 | > 50 |  |
| 49 | O=c1n(Cc2cc3cc(Cl)ccc3n2CCCCO)c2cnccc2n1C1CC1 | > 50 |  |
| 34 | N#CCCCn1c(Cn2c(=O)n(-c3ncccn3)c3ccncc32)cc2cc(Cl)ccc21 | > 50 |  |
| 99 | O=c1n(Cc2cc3cc(Cl)ccc3n2CCCN2CCOCC2)c2cnccc2n1C1CC1 | > 50 |  |
| 37 | O=c1n(Cc2cc3cc(Cl)ccc3n2CCCCF)c2cnccc2n1C1CC1 | > 50 |  |
